What was measured:
[1] = biological target: T1, AR protein expression in human prostate cancer cells LNCaP (Homo sapiens, UniProt P10275, T878A); assay: Reduction of AR protein expression in LNCaP cells (Western blot, with DHT); format: cell-based; details: 1 nM DHT; for anti-AR activity (in words): Western blot; for AR reduction percentage / Relative potency (anti-AR activity): 48 h; for Relative potency (anti-AR activity): concentration basis not given
T1 sequence (P10275 1-920 T878A): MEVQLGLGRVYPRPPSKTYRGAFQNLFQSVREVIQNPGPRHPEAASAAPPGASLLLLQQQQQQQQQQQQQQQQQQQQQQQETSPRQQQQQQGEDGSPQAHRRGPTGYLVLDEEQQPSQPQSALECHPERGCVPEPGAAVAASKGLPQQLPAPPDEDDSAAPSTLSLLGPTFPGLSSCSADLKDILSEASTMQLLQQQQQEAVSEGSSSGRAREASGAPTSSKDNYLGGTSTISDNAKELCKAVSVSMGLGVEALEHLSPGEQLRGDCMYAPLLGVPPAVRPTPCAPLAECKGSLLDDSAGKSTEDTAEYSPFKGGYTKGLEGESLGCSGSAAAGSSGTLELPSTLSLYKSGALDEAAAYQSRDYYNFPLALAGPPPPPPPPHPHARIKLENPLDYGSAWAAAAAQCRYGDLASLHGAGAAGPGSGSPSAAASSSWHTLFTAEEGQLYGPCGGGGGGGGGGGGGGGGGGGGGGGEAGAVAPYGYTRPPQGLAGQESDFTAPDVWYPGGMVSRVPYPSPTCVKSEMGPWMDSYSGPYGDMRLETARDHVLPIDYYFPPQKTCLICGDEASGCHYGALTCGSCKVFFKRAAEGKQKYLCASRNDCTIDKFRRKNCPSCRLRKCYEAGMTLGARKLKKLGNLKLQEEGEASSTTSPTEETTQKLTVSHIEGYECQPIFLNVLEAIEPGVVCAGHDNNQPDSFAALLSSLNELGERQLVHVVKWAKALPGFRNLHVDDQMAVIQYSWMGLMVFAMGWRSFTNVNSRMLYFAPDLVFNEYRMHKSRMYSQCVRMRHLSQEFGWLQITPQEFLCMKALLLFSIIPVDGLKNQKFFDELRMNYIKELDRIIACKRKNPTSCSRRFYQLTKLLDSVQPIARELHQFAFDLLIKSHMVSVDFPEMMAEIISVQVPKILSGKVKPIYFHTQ
Method: The term “anti-AR activity” refers to the ability of the compound of the present disclosure to reduce AR expression in human prostate cancer cells LNCaP, and the ability of the compound of the present disclosure to reduce AR expression is expressed in AR reduction percentage (%) herein. […] The AR reduction percentage (%) is calculated as follows: AR reduction percentage (%)=(AR in DHT group/GAPDH value−AR in test compound group/GAPDH value)/AR in DHT group/GAPDH value×100%.
AR is a key factor for regulating the response of prostate cancer cells to androgens. AR is also a key factor for the response of hair follicles or tissues around the hair follicles to androgens, and the reduction of the AR content not only can down-regulate the growth of the prostate cancer cells, but also can inhibit androgenetic alopecia. This test example is to test the effects of the compounds of the present disclosure on the reduction of AR protein expression in human prostate cancer cells LNCaP in the presence of DHT. The compounds of the present disclosure were analyzed for anti-AR activity in human prostate cancer cells LNCaP by measuring the reduction of AR protein using the Western blot method.
Human prostate cancer cells LNCaP were seeded in a 6-well plate at 4×10^5 cells/mL and at a volume of 2 mL per well. The plate was incubated overnight in a cell incubator. DMSO and dihydrotestosterone (DHT, 1 nM) were used as control groups. Assays were performed in the presence of dihydrotestosterone (DHT, 1 nM). After incubating with the test compounds for a specified time, the cells were collected and dissolved according to the Western blot technique known in the biochemical art. A DMSO group, a DHT group (1 nM) and test compound groups (containing 1 nM DHT) were set during the assay. DMSO and DHT (1 nM DHT) were added to 6-well plates corresponding to the DMSO group and the DHT group, respectively. […] The protein concentration was quantified using the BCA kit, and then the samples were stored for later use.
The content of the AR protein in each group was determined by using Western Blot, and the loading amount of the sample in each group was […]. Western blot analysis has been disclosed in the prior art. Specifically, the cells were collected in 2× sodium dodecyl sulfate/polyacrylamide gel electrophoresis loading buffer or in radioimmunoprecipitation assay (RIPA) buffer strengthened with 10 μg/mL benzamidine, 10 μg/mL trypsin inhibitor, and 1 mM phenylmethylsulfonyl fluoride. A sample of total protein (about 40 μg) from each cell lysate was separated by electrophoresis on an SDS/PAGE gel. After separation by electrophoresis, the proteins were transferred from the gel to a nitrocellulose membrane following the standard procedures. The membrane was then incubated with 10% non-fat milk in phosphate-buffered saline supplemented with 0.1% Tween 20 (PBST) for 1 h, followed by incubation with a primary human AR-specific antibody (purchased from BD-Harlingen) at 4° C. overnight. After incubation, the membrane was washed 3 times with PBST buffer, each for 10 mins. An alkaline phosphatase-conjugated secondary antibody was then added, and the membrane was incubated at room temperature for 1 h. After the secondary incubation, the membrane was washed again with PBST, and the AR protein signal in the membrane was visualized by adding an alkaline phosphatase medium, bromochloroindolyl phosphate, and nitrotetrazole to the membrane. To ensure that an equal amount of protein from each sample was analyzed, a portion of the membrane was kept with a specific antibody for the regulatory protein GAPDH (Santa Cruz Biotechnology), and the GAPDH signal was visualized with the secondary antibody described above. The protein signal intensity (as indicated by color bands on the membrane) was measured using a densitometer and analyzed by the NIH Image J software (NIH1.33).

[2] = Pharmacokinetic study, single oral administration to SD rats; details: for AUC(0-t) / Cmax / Tmax / half-life: male, SD, rat, po, 50 mg/kg
Method: Experimental method: Male SD rats were randomly grouped (3 rats per group), given ad libitum access to water during the assay, fasted for 12 or more hours before administration, and given food 4 hours after administration.
The blood was centrifuged within 60 min of being collected to isolate plasma (centrifuged at 8000 rpm at 2-8° C. for 5 min). After the centrifugation, the plasma was transferred to a 96-well plate or centrifuge tubes, transported in a box with ice, and stored at ≤−15° C. before LC-MS/MS analysis. The drug concentration in the plasma of SD rats was measured by LC-MS/MS bioanalysis, and the plasma concentration-time data were analyzed using WinNonlin™ (Version 8.3, Certara, USA) and a non-compartmental model to evaluate the pharmacokinetic (PK) profiles of the compounds in SD rats.

AUClast in rats (comparison in words) ([2]; SD rats, oral, same dose, FIG. 2) | AUC(0-t) ([2]; plasma) [ng·h/mL] | Cmax ([2]; plasma) [ng/mL] | Tmax ([2]; plasma) [min] | half-life ([2]; plasma) [min] | Compound | anti-AR activity (in words) [1] | AR reduction percentage ([1]; 2.5 μmol/L compound) [%] | AR reduction percentage ([1]; 5 μmol/L compound) [%] | AR reduction percentage ([1]; 10 μmol/L compound) [%] | Relative potency (anti-AR activity) [1] | AUC(0-t) ([2]; in vivo) [ng·h/mL] | Cmax ([2]; in vivo) [ng/mL] | Tmax ([2]; in vivo) [min] | half-life ([2]; in vivo) [min]
 |  |  |  |  | COc1ccc(/C=C/C(=O)C2(C(=O)/C=C/c3ccc(OC)c(OC)c3)CCC(=O)CC2)cc1OC [Compound 7] | significant anti-AR activities | 0 | 67.3 | 95.6 | +++++ (62.5 < * ≤ 75) | 460 | 298 | 11.4 | 177
higher AUClast than that of compound 7 | 1010 | 282 | 19.8 | 94.2 | COc1ccc(/C=C/C(=O)C2(C(=O)/C=C/c3ccc(OC)c(OC)c3)CCC(F)(F)CC2)cc1OC [Compound 8] | significant anti-AR activities | 57.5 | 87.3 | 92.2 | ++++++ (75 < * ≤ 100) |  |  |  | 

Source: US20250295609A1, “COMPOUND HAVING ANTI-ANDROGEN RECEPTOR ACTIVITY, AND USE THEREOF” (NANJING MINOVA PHARMACEUTICAL CO., LTD., priority 2022, published 2025)
